From the supplement of paper PMC10307832

How the values were obtained:
Assay in all cases: relative viability (nuclei count vs DMSO), 5 days (fraction); higher = more cells survive
NCI-H1437 = tested on: NCI-H1437
How it was run: (§1)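 Lung cancer cell lines, seeded in 1536-well plates, were treated the following day by pin tool with a single drug or with five library-drug doses (not always all listed) in √10 steps on top of a fixed anchor-drug dose. Cells were fixed and nuclei stained in one step after 5 days, and nuclei were counted. Relative viability is the nuclei count for treated wells divided by that for vehicle wells, reported as medians of duplicate plates.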

NCI-H1623 = tested on: NCI-H1623
How it was run: as §1

A549 = tested on: A549
How it was run: as §1

Calu-6 = tested on: Calu-6
How it was run: as §1

EBC-1 = tested on: EBC-1
How it was run: as §1

IA-LM = tested on: IA-LM
How it was run: as §1

NCI-H1299 = tested on: NCI-H1299
How it was run: as §1

NCI-H1648 = tested on: NCI-H1648
How it was run: as §1

NCI-H1703 = tested on: NCI-H1703
How it was run: as §1

## COc1cc(N2CCC(C(N)=O)CC2)ccc1Nc1nc(N)c(Cl)c(Nc2ccccc2S(=O)(=O)C(C)C)n1 [HG-5-88-01] + Cc1nc(Nc2ncc(C(=O)Nc3c(C)cccc3Cl)s2)cc(N2CCN(CCO)CC2)n1 [Dasatinib] (partner 0.075 µM)
NCI-H1437; first compound 0.04 µM
  relative viability: 0.411
NCI-H1437; first compound 0.1265 µM
  relative viability: 0.306
NCI-H1437; first compound 0.4 µM
  relative viability: 0.231
NCI-H1437; first compound 1.265 µM
  relative viability: 0.234
NCI-H1437; first compound 4 µM
  relative viability: 0.267
NCI-H1623; first compound 0.04 µM
  relative viability: 0.533
NCI-H1623; first compound 0.1265 µM
  relative viability: 0.532
NCI-H1623; first compound 0.4 µM
  relative viability: 0.498
NCI-H1623; first compound 4 µM
  relative viability: 0.486

## COc1cc(N2CCC(C(N)=O)CC2)ccc1Nc1nc(N)c(Cl)c(Nc2ccccc2S(=O)(=O)C(C)C)n1 [HG-5-88-01] + N=C(N)NC(=N)NCCc1ccccc1 [Phenformin] (partner 250 µM)
A549; first compound 0.04 µM
  relative viability: 0.246
A549; first compound 0.1265 µM
  relative viability: 0.24
A549; first compound 0.4 µM
  relative viability: 0.327
A549; first compound 1.265 µM
  relative viability: 0.347
A549; first compound 4 µM
  relative viability: 0.183
NCI-H1437; first compound 0.04 µM
  relative viability: 0.37
NCI-H1437; first compound 0.1265 µM
  relative viability: 0.335
NCI-H1437; first compound 0.4 µM
  relative viability: 0.466
NCI-H1437; first compound 1.265 µM
  relative viability: 0.37
NCI-H1437; first compound 4 µM
  relative viability: 0.194
NCI-H1623; first compound 0.04 µM
  relative viability: 0.651
NCI-H1623; first compound 0.1265 µM
  relative viability: 0.618
NCI-H1623; first compound 0.4 µM
  relative viability: 0.561
NCI-H1623; first compound 4 µM
  relative viability: 0.524

## COc1cc(N2CCC(C(N)=O)CC2)ccc1Nc1nc(N)c(Cl)c(Nc2ccccc2S(=O)(=O)C(C)C)n1 [HG-5-88-01] + O=C(c1cc(Cc2n[nH]c(=O)c3ccccc23)ccc1F)N1CCN(C(=O)C2CC2)CC1 [Olaparib] (partner 8 µM)
A549; first compound 0.04 µM
  relative viability: 0.357
A549; first compound 0.1265 µM
  relative viability: 0.419
A549; first compound 0.4 µM
  relative viability: 0.352
A549; first compound 1.265 µM
  relative viability: 0.273
A549; first compound 4 µM
  relative viability: 0.25
Calu-6; first compound 0.04 µM
  relative viability: 0.599
Calu-6; first compound 0.1265 µM
  relative viability: 0.579
Calu-6; first compound 0.4 µM
  relative viability: 0.579
Calu-6; first compound 1.265 µM
  relative viability: 0.537
Calu-6; first compound 4 µM
  relative viability: 0.46
EBC-1; first compound 0.04 µM
  relative viability: 0.712
EBC-1; first compound 0.1265 µM
  relative viability: 0.77
EBC-1; first compound 0.4 µM
  relative viability: 0.733
EBC-1; first compound 1.265 µM
  relative viability: 0.668
EBC-1; first compound 4 µM
  relative viability: 0.489
IA-LM; first compound 0.04 µM
  relative viability: 0.79
IA-LM; first compound 0.1265 µM
  relative viability: 0.839
IA-LM; first compound 0.4 µM
  relative viability: 0.87
IA-LM; first compound 1.265 µM
  relative viability: 0.699
IA-LM; first compound 4 µM
  relative viability: 0.649
NCI-H1299; first compound 0.04 µM
  relative viability: 0.956
NCI-H1299; first compound 0.1265 µM
  relative viability: 0.972
NCI-H1299; first compound 0.4 µM
  relative viability: 0.986
NCI-H1299; first compound 1.265 µM
  relative viability: 0.951
NCI-H1299; first compound 4 µM
  relative viability: 0.87
NCI-H1437; first compound 0.04 µM
  relative viability: 0.645
NCI-H1437; first compound 0.1265 µM
  relative viability: 0.609
NCI-H1437; first compound 0.4 µM
  relative viability: 0.607
NCI-H1437; first compound 1.265 µM
  relative viability: 0.631
NCI-H1437; first compound 4 µM
  relative viability: 0.557
NCI-H1648; first compound 0.04 µM
  relative viability: 1.13
NCI-H1648; first compound 0.1265 µM
  relative viability: 0.63
NCI-H1648; first compound 0.4 µM
  relative viability: 0.457
NCI-H1648; first compound 1.265 µM
  relative viability: 0.773
NCI-H1648; first compound 4 µM
  relative viability: 0.462
NCI-H1703; first compound 0.04 µM
  relative viability: 0.341
NCI-H1703; first compound 0.1265 µM
  relative viability: 0.386
NCI-H1703; first compound 1.265 µM
  relative viability: 0.305
NCI-H1703; first compound 4 µM
  relative viability: 0.309

## Clc1ccc(Nc2nnc(Cc3ccncc3)c3ccccc23)cc1 [Vatalanib] + CCNC(=O)c1noc(-c2cc(C(C)C)c(O)cc2O)c1-c1ccc(CN2CCOCC2)cc1 [Luminespib] (partner 0.01 µM)
NCI-H1437; first compound 0.04 µM
  relative viability: 1.21
NCI-H1437; first compound 0.1265 µM
  relative viability: 1.19
NCI-H1437; first compound 0.4 µM
  relative viability: 1.13
NCI-H1437; first compound 1.265 µM
  relative viability: 1.12
NCI-H1437; first compound 4 µM
  relative viability: 1.14
NCI-H1623; first compound 0.04 µM
  relative viability: 0.428
NCI-H1623; first compound 0.1265 µM
  relative viability: 0.616
NCI-H1623; first compound 0.4 µM
  relative viability: 0.579
NCI-H1623; first compound 1.265 µM
  relative viability: 0.471
NCI-H1623; first compound 4 µM
  relative viability: 0.478

## Clc1ccc(Nc2nnc(Cc3ccncc3)c3ccccc23)cc1 [Vatalanib] + COc1cccc2cc(-c3nc([C@H]4CC[C@H](C(=O)O)CC4)n4ncnc(N)c34)[nH]c12 [OSI-027] (partner 0.5 µM)
NCI-H1437; first compound 0.04 µM
  relative viability: 0.942
NCI-H1437; first compound 0.1265 µM
  relative viability: 0.949
NCI-H1437; first compound 0.4 µM
  relative viability: 0.937
NCI-H1437; first compound 1.265 µM
  relative viability: 0.792
NCI-H1437; first compound 4 µM
  relative viability: 0.879
NCI-H1623; first compound 0.04 µM
  relative viability: 0.39
NCI-H1623; first compound 0.1265 µM
  relative viability: 0.618
NCI-H1623; first compound 0.4 µM
  relative viability: 0.446
NCI-H1623; first compound 1.265 µM
  relative viability: 0.418
NCI-H1623; first compound 4 µM
  relative viability: 0.386
NCI-H1648; first compound 0.04 µM
  relative viability: 0.258
NCI-H1648; first compound 0.1265 µM
  relative viability: 0.265
NCI-H1648; first compound 0.4 µM
  relative viability: 0.299
NCI-H1648; first compound 1.265 µM
  relative viability: 0.238
NCI-H1648; first compound 4 µM
  relative viability: 0.255

## Clc1ccc(Nc2nnc(Cc3ccncc3)c3ccccc23)cc1 [Vatalanib] + Cc1nc(Nc2ncc(C(=O)Nc3c(C)cccc3Cl)s2)cc(N2CCN(CCO)CC2)n1 [Dasatinib] (partner 0.075 µM)
NCI-H1437; first compound 0.04 µM
  relative viability: 0.399
NCI-H1437; first compound 0.1265 µM
  relative viability: 0.41
NCI-H1437; first compound 0.4 µM
  relative viability: 0.286
NCI-H1437; first compound 1.265 µM
  relative viability: 0.349
NCI-H1437; first compound 4 µM
  relative viability: 0.417
NCI-H1623; first compound 0.04 µM
  relative viability: 0.449
NCI-H1623; first compound 0.1265 µM
  relative viability: 0.619
NCI-H1623; first compound 0.4 µM
  relative viability: 0.545
NCI-H1623; first compound 1.265 µM
  relative viability: 0.533
NCI-H1623; first compound 4 µM
  relative viability: 0.435

## Clc1ccc(Nc2nnc(Cc3ccncc3)c3ccccc23)cc1 [Vatalanib] + N=C(N)NC(=N)NCCc1ccccc1 [Phenformin] (partner 250 µM)
A549; first compound 0.04 µM
  relative viability: 0.206
A549; first compound 0.1265 µM
  relative viability: 0.131
A549; first compound 0.4 µM
  relative viability: 0.104
A549; first compound 1.265 µM
  relative viability: 0.143
A549; first compound 4 µM
  relative viability: 0.154
NCI-H1437; first compound 0.04 µM
  relative viability: 0.341
NCI-H1437; first compound 0.1265 µM
  relative viability: 0.281
NCI-H1437; first compound 0.4 µM
  relative viability: 0.298
NCI-H1437; first compound 1.265 µM
  relative viability: 0.247
NCI-H1437; first compound 4 µM
  relative viability: 0.273
NCI-H1623; first compound 0.04 µM
  relative viability: 0.584
NCI-H1623; first compound 0.1265 µM
  relative viability: 0.577
NCI-H1623; first compound 0.4 µM
  relative viability: 0.514
NCI-H1623; first compound 1.265 µM
  relative viability: 0.581
NCI-H1623; first compound 4 µM
  relative viability: 0.524

## Clc1ccc(Nc2nnc(Cc3ccncc3)c3ccccc23)cc1 [Vatalanib] + O=C(c1cc(Cc2n[nH]c(=O)c3ccccc23)ccc1F)N1CCN(C(=O)C2CC2)CC1 [Olaparib] (partner 8 µM)
A549; first compound 0.04 µM
  relative viability: 0.478
A549; first compound 0.1265 µM
  relative viability: 0.302
A549; first compound 0.4 µM
  relative viability: 0.532
A549; first compound 1.265 µM
  relative viability: 0.239
A549; first compound 4 µM
  relative viability: 0.3
Calu-6; first compound 0.1265 µM
  relative viability: 0.567
Calu-6; first compound 0.4 µM
  relative viability: 0.539
Calu-6; first compound 1.265 µM
  relative viability: 0.554
Calu-6; first compound 4 µM
  relative viability: 0.541
EBC-1; first compound 0.04 µM
  relative viability: 0.761
EBC-1; first compound 0.1265 µM
  relative viability: 0.59
EBC-1; first compound 0.4 µM
  relative viability: 0.817
EBC-1; first compound 1.265 µM
  relative viability: 0.663
EBC-1; first compound 4 µM
  relative viability: 0.654
IA-LM; first compound 0.04 µM
  relative viability: 0.89
IA-LM; first compound 0.1265 µM
  relative viability: 0.843
IA-LM; first compound 0.4 µM
  relative viability: 0.831
IA-LM; first compound 1.265 µM
  relative viability: 0.701
IA-LM; first compound 4 µM
  relative viability: 0.645
NCI-H1299; first compound 0.04 µM
  relative viability: 0.986
NCI-H1299; first compound 0.1265 µM
  relative viability: 0.924
NCI-H1299; first compound 0.4 µM
  relative viability: 1.04
NCI-H1299; first compound 1.265 µM
  relative viability: 0.923
NCI-H1299; first compound 4 µM
  relative viability: 0.965
NCI-H1437; first compound 0.04 µM
  relative viability: 0.67
NCI-H1437; first compound 0.1265 µM
  relative viability: 0.625
NCI-H1437; first compound 0.4 µM
  relative viability: 0.679
NCI-H1437; first compound 1.265 µM
  relative viability: 0.625
NCI-H1437; first compound 4 µM
  relative viability: 0.606
NCI-H1648; first compound 0.04 µM
  relative viability: 0.943
NCI-H1648; first compound 0.1265 µM
  relative viability: 0.866
NCI-H1648; first compound 0.4 µM
  relative viability: 1.01
NCI-H1648; first compound 1.265 µM
  relative viability: 0.611
NCI-H1648; first compound 4 µM
  relative viability: 1.04
NCI-H1703; first compound 0.04 µM
  relative viability: 0.506
NCI-H1703; first compound 0.4 µM
  relative viability: 0.624
NCI-H1703; first compound 1.265 µM
  relative viability: 0.299
NCI-H1703; first compound 4 µM
  relative viability: 0.22
